Source: patent US7803930B2, “Antisense modulation of apolipoprotein B-expression” (Isis Pharmaceuticals, Inc., priority 2002, dated 2010)
In the oligonucleotide strings, read from the 5' end, every base follows the letter of its sugar. An asterisk marks phosphorothioate; unmarked linkages are phosphodiester. Other units and linkages are bracketed, terminal groups are in braces. A string of capitals states the bases alone. e = 2'-O-(2-methoxyethyl) (MOE); [5mC] = 5-methylcytosine; d = 2'-deoxy (DNA)

System: human apolipoprotein B mRNA
Test: Inhibition of human apolipoprotein B mRNA levels in HepG2 cells, quantitative real-time PCR
Assay type: cell-based
Details: for % INHIB (inhibition of human apolipoprotein B mRNA levels): HepG2 cells treated with 150 nM of compound, quantitative real-time PCR; for % inhibition of apolipoprotein B mRNA levels: normalized to untreated control, average of two experiments; for % Change in apolipoprotein B mRNA expression: 24 hour (Table 40)
Method in brief: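 Apolipoprotein B transcript was quantified by one-step TaqMan RT-PCR, normalized to GAPDH or RiboGreen RNA, and expressed as percent inhibition against an untreated-sample standard curve. HepG2 cells were harvested 16-24 h after oligonucleotide exposure, which was delivered with 3.75 μg/mL Lipofectin over 4-7 h at 80% confluency.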

[1] = Table 11 gene walk, HepG2 cells, 50 nM, averages from two experiments
[2] = Table 11 gene walk, HepG2 cells, 150 nM, averages from two experiments
[3] = Table 1, HepG2 cells, 150 nM, averages from two experiments
[4] = HepG2 cells, human apolipoprotein B mRNA, oligonucleotides targeting genomic sequence SEQ ID NO 334, averages from two experiments
[5] = HepG2 cells, 12.5 nM oligonucleotide
[6] = HepG2 cells, 37 nM oligonucleotide
[7] = HepG2 cells, 75 nM oligonucleotide
[8] = HepG2 cells, 150 nM oligonucleotide
[9] = HepG2 cells, 300 nM oligonucleotide

Substance: 281599 (eT*eT*e[5mC]*e[5mC]*eA*dA*dT*dG*dA*d[5mC]*d[5mC]*d[5mC]*dG*d[5mC]*dA*eG*eA*eA*eT*e[5mC]; antisense) [compound 281599]
- % INHIB (inhibition of human apolipoprotein B mRNA levels) (averages from two experiments): 74%

Substance: 308620 (eT*eG*eG*eT*eA*dG*dG*d[5mC]*dT*d[5mC]*d[5mC]*dT*dT*dT*dT*eA*eG*eG*eT*eT; antisense) [compound 308620]
- % INHIB 50 nm [1]: 69%
- % INHIB 150 nm [2]: 88%

Substance: 147815 (antisense eT*eG*eG*e[5mC]*e[5mC]*dT*dA*d[5mC]*d[5mC]*dA*dG*dA*dG*dA*d[5mC]*eA*eG*eG*eT*eA) [compound 147815]
- % INHIB [3]: 45%

Substance: 301057 (eT*eG*e[5mC]*eA*eG*dA*d[5mC]*dT*dA*dG*dG*dA*dG*dT*dG*eA*eA*eA*eG*eT; antisense) [compound 301057]
- % INHIB [4]: 30%

Substance: 301227 (antisense eT*eA*eT*eT*e[5mC]*dT*dG*dT*dT*dA*d[5mC]*dT*dT*dA*dA*eA*eT*e[5mC]*eA*e[5mC]) [compound 301227]
- % INHIB (Table 15, HepG2 cells, 150 nM, averages from two experiments): 23%

Substance: 308597 (antisense eT*e[5mC]*eA*eG*eT*d[5mC]*dT*dG*d[5mC]*dT*dT*d[5mC]*dG*d[5mC]*dA*e[5mC]*e[5mC]*eT*eT*e[5mC]) [compound 308597]
- % INHIB 50 nm [1]: 66%
- % INHIB 150 nm [2]: 91%

Substance: 301091 (antisense eG*eA*eG*eA*eT*dT*dG*dG*dA*dG*dA*d[5mC]*dG*dA*dG*e[5mC]*eA*eT*eT*eT) [compound 301091]
- % INHIB [4]: 35%

Substance: 271038 (eG*eT*e[5mC]*eT*eA*d[5mC]*d[5mC]*dT*d[5mC]*dA*dA*dA*dG*d[5mC]*dG*eT*eG*e[5mC]*eA*eG; antisense) [compound 271038]
- % INHIB (inhibition of human apolipoprotein B mRNA levels) (averages from two experiments): 29%

Substance: 301206 (antisense eG*eT*eT*eT*eT*d[5mC]*dA*dA*dA*dA*dG*dG*dT*dA*dT*eA*eA*eG*eG*eT) [compound 301206]
- % INHIB [4]: 28%

Substance: 147780 (antisense e[5mC]*e[5mC]*eG*e[5mC]*eA*dG*dG*dT*d[5mC]*d[5mC]*d[5mC]*dG*dG*dT*dG*eG*eG*eA*eA*eT) [compound 147780]
- % INHIB [3]: 40%

Substance: 308638 (GCCTCAGTCTGCTTCGCACC; 1-10-9 MOE gapmer, phosphorothioate, chemistry not fully specified) [compound 308638]
- % inhibition of apolipoprotein B mRNA levels [5]: 42%
- % inhibition of apolipoprotein B mRNA levels [6]: 73%
- % inhibition of apolipoprotein B mRNA levels [7]: 91%
- % inhibition of apolipoprotein B mRNA levels [8]: 96%
- % inhibition of apolipoprotein B mRNA levels [9]: 97%
- % INHIB 50 nm (HepG2 cells, 50 nm oligonucleotide, variable deoxy gap position): 91%
- % INHIB 150 nm (HepG2 cells, 150 nm oligonucleotide, variable deoxy gap position): 94%

Substance: 301180 (antisense eG*eA*eA*eT*eA*d[5mC]*dT*d[5mC]*dA*d[5mC]*d[5mC]*dT*dT*d[5mC]*dT*eG*e[5mC]*eT*eT*eG) [compound 301180]
- % INHIB [4]: 6%

Substance: 271004 (antisense eG*e[5mC]*eT*e[5mC]*e[5mC]*dT*d[5mC]*dT*d[5mC]*d[5mC]*d[5mC]*dA*dA*dG*dA*eT*eG*e[5mC]*eG*eG) [compound 271004]
- % INHIB (inhibition of human apolipoprotein B mRNA levels) (averages from two experiments): 10%

Substance: 301214 (antisense eT*eT*eT*e[5mC]*eT*d[5mC]*dT*dT*dT*dA*dT*d[5mC]*dA*d[5mC]*dA*eT*eG*e[5mC]*e[5mC]*e[5mC]) [compound 301214]
- % INHIB [4]: 29%

Substance: 281630 (antisense e[5mC]*eG*eT*e[5mC]*e[5mC]*dA*dG*dT*dA*dA*dG*d[5mC]*dT*d[5mC]*d[5mC]*eA*e[5mC]*eG*e[5mC]*e[5mC]) [compound 281630]
- % INHIB (inhibition of human apolipoprotein B mRNA levels) (averages from two experiments): 82%

Substance: 301065 (eA*eG*e[5mC]*eT*eG*d[5mC]*dA*dG*dT*dG*dG*d[5mC]*d[5mC]*dG*dA*eT*e[5mC]*eA*eG*e[5mC]; antisense) [compound 301065]
- % INHIB [4]: 50%

Substance: 301087 (antisense eA*e[5mC]*eA*eA*eG*dG*dA*dG*dT*d[5mC]*d[5mC]*dT*dT*dG*dT*eG*e[5mC]*eA*eG*eA) [compound 301087]
- % INHIB [4]: 40%

Substance: 301106 (antisense eA*eA*eA*eG*eA*dA*dA*d[5mC]*dT*dA*dT*d[5mC]*d[5mC]*dT*dG*eT*eA*eT*eT*e[5mC]) [compound 301106]
- % INHIB [4]: 12%

Substance: 301070 (eG*eT*eT*eG*eG*dA*d[5mC]*dA*dG*dT*d[5mC]*dA*dT*dT*d[5mC]*eT*eT*eT*eT*eG; antisense) [compound 301070]
- % INHIB [4]: 38%

Substance: 301197 (antisense e[5mC]*eA*eT*eA*eG*d[5mC]*dT*d[5mC]*dA*d[5mC]*d[5mC]*dT*dT*dG*d[5mC]*eA*e[5mC]*eA*eT*eT) [compound 301197]
- % INHIB [4]: 28%

Substance: 301104 (antisense e[5mC]*e[5mC]*eA*eG*eA*dG*dA*dT*dG*dA*dG*d[5mC]*dA*dA*d[5mC]*eT*eT*eA*eG*eG) [compound 301104]
- % INHIB [4]: 38%

Substance: 271013 (antisense eG*eA*eA*e[5mC]*eT*dG*d[5mC]*d[5mC]*d[5mC]*dA*dT*d[5mC]*dA*dA*dT*e[5mC]*eT*eT*eG*eA) [compound 271013]
- % INHIB (inhibition of human apolipoprotein B mRNA levels) (averages from two experiments): 19%

Substance: 301127 (eT*e[5mC]*e[5mC]*eT*eA*dG*dA*dG*d[5mC]*dA*d[5mC]*dT*dA*dT*d[5mC]*eA*eA*eG*eT*eA; antisense) [compound 301127]
- % INHIB [4]: 41%

Substance: 301020 (eG*eG*e[5mC]*eG*eG*dG*d[5mC]*dT*d[5mC]*d[5mC]*dT*d[5mC]*dA*dG*d[5mC]*eG*eG*e[5mC]*eA*eG; antisense) [compound 301020]
- % INHIB (inhibition of human apolipoprotein B mRNA levels) (averages from two experiments): 85%

Substance: 301111 (antisense eT*eG*eA*eA*eG*dG*dG*dT*dA*dG*dA*dG*dA*dA*dA*eT*e[5mC]*eA*eT*eA) [compound 301111]
- % INHIB [4]: 9%

Substance: 332772 (antisense GCCTCAGTATTATTCGCACC; sugars from the 5' end e5 d10 e5, all phosphorothioate, methylation of C not given here) [compound 332772]
- % Change in apolipoprotein B mRNA expression (HepG2 cells, 50 nM): +99%
- % Change in apolipoprotein B mRNA expression (HepG2 cells, 150 nM): +84%

Substance: 301125 (eA*eG*eG*eG*eA*dT*dG*dG*dT*d[5mC]*dA*dA*dT*d[5mC]*dT*eG*eG*eT*eA*eG; antisense) [compound 301125]
- % INHIB [4]: 57%

Substance: 281626 (antisense eA*eT*eG*eT*eG*d[5mC]*dA*dT*d[5mC]*dG*dA*dT*dG*dG*dT*e[5mC]*eA*eT*eG*eG) [compound 281626]
- % INHIB (inhibition of human apolipoprotein B mRNA levels) (averages from two experiments): 88%

Substance: 308642 (GCCTCAGTCTGCTTCGCGCC; 3-10-7 MOE gapmer, phosphorothioate, chemistry not fully specified) [compound 308642]
- % inhibition of apolipoprotein B mRNA levels [5]: 59%
- % inhibition of apolipoprotein B mRNA levels [6]: 84%
- % inhibition of apolipoprotein B mRNA levels [7]: 91%
- % inhibition of apolipoprotein B mRNA levels [8]: 97%
- % inhibition of apolipoprotein B mRNA levels [9]: 98%
- % INHIB 50 nm (Table 17 variable gap, HepG2 cells, 50 nM, averages from three experiments): 85%
- % INHIB 150 nm (Table 17 variable gap, HepG2 cells, 150 nM, averages from three experiments): 95%

Substance: 271037 (eA*eA*eG*eA*e[5mC]*d[5mC]*d[5mC]*dA*dG*dA*dA*dT*dG*dA*dA*eT*e[5mC]*e[5mC]*eG*eG; antisense) [compound 271037]
- % INHIB (inhibition of human apolipoprotein B mRNA levels) (averages from two experiments): 23%

Substance: 270992 (antisense e[5mC]*e[5mC]*e[5mC]*eT*eT*d[5mC]*d[5mC]*dT*d[5mC]*dG*dT*d[5mC]*dT*dT*dG*eA*e[5mC]*eG*eG*eT) [compound 270992]
- % INHIB (inhibition of human apolipoprotein B mRNA levels) (averages from two experiments): 8%

Substance: 301076 (e[5mC]*e[5mC]*eA*eG*eT*dA*dT*dT*dT*d[5mC]*dA*d[5mC]*dG*d[5mC]*d[5mC]*eA*eA*eT*e[5mC]*e[5mC]; antisense) [compound 301076]
- % INHIB [4]: 36%

Substance: 271048 (e[5mC]*eT*eG*eA*eA*dG*dA*dT*dT*dA*d[5mC]*dG*dT*dA*dG*e[5mC]*eA*e[5mC]*e[5mC]*eT; antisense) [compound 271048]
- % INHIB (inhibition of human apolipoprotein B mRNA levels) (averages from two experiments): 7%

Substance: 147806 (antisense eA*eT*eG*eT*eG*dG*dT*dA*dA*d[5mC]*dG*dA*dG*d[5mC]*d[5mC]*e[5mC]*eG*eA*eA*eG) [compound 147806]
- % INHIB [3]: 100%
- Percent Inhibition 50 nM (Table 2, HepG2 cells, 50 nM): 23%
- Percent Inhibition 150 nM (Table 2, HepG2 cells, 150 nM): 45%
- Percent Inhibition 250 nM (Table 2, HepG2 cells, 250 nM): 28%

Substance: 281621 (antisense e[5mC]*eA*eG*eT*eG*d[5mC]*d[5mC]*dT*dA*dA*dG*dA*dT*dG*dT*e[5mC]*eA*eG*e[5mC]*eA) [compound 281621]
- % INHIB (inhibition of human apolipoprotein B mRNA levels) (averages from two experiments): 53%
